Reference: US9526915B2, “Methods for regulating cell mitosis by inhibiting serine/threonine phosphatase” (priority 2008, dated 2016)
Entries after “also recorded” stand apart in the source; their conditions may differ.

Key:
U87 cells = assay: U87 GBM cell growth in vitro, viable cells counted; assay type: cell-based; details: Homo sapiens, U-87 MG, read-out: IC50 inhibition of GBM cell growth
Protocol: FIG. 6: Effect of Compound 102 on U87 Cells In Vitro at 1 uM; 2 uM; 5 uM; and 10 uM.
Viable cells were counted (mean and s.d.; n=3; Coulter particle counter).
Recent work led to the discovery that treatment with the compound, compound 100, and several homologs inhibit the serine/threonine protein phosphatases PP2A (FIG. 1). Compound 102 inhibits PP2A (IC50=˜0.4 μM) more potently than PP1 (IC50=˜80 μM) (FIG. 2). Associated with their inhibition of PP2A, Compound 100 and homologs inhibit a variety of human cancer cell types growing in cell culture and growing in vivo as xenografts implanted subcutaneously in SCID mice (FIG. 3 and FIG. 4). […] Death of these cancer cells is associated with profound disruption of microtubular structures. Such patterns of disordered microtubules during mitosis have been noted after exposure of cancer cells to spindle toxins include such vincristine, vinblastine, taxol, taxotere, ionizing radiation, and DNA damaging agents including anthracyclines and the platinum based compounds. The morphologic appearance of cells displaying these characteristics has been called the mitotic catastrophe phenotype (Castedo et al 2004).

U373 cells = assay: Cell cycle distribution of U373 cells by FACS; assay type: cell-based, human; details: U373, 48 hours
Protocol: Cells in unsynchronized logarithmic growth were exposed to vehicle or drug and adherent cells and cells in the media were collected. Harvested cells were fixed with 70% cold ethanol for 20 min at −20 degrees, washed with PBS, and stained with 10 ug/ml of PI and 1 ug/ml RNAse in TBS for 30 minutes and analyzed by FACS. A, Flow cytometry profiles of U87 cells after exposures to DMSO only, compound 102 only, 5 uM; TMZ only, 25 uM; compound 102 with TMZ combination, doxorubicin only, 2.0 uM and compound 102 with doxorubicin combination. B, Flow cytometry profiles of U373 cells. Exposures as in A, and C, Schema of proposed mechanisms of compound 102 enhancement of cancer chemotherapy.
We analyzed cell cycle patterns of U87MG and U373 cells 48 hours after exposure to TMZ or DOX alone and in combination with compound 102.

U87MG cells = assay: Cellular and molecular changes in U87MG cells (Western blots, IFS); assay type: cell-based, human
Protocol: D, Western blots of U87 lysates: TCTP, pPlk (Tre-210), total Plk, and β-actin. E, IFS of TCTP in U87 cells, F, Western blots p53 (ser-15), pMDM2 (ser-166), and β-actin and G, IFS of p53 (ser-15).
5×10^6 U87MG cells were inoculated s.c. into each flank of 20 SCID mice. When the xenografts were 0.5+/−0.1 cm (day 0), 5 animals each received i.p. vehicle alone days 1-12 (50% DMSO/H20); compound 102 alone at 1.5 mg/kg days 1-3, 5-7, & 9-11; TMZ alone at 80 mg/kg days 4, 8, 12; or both drugs at the same doses and schedules. If xenografts reached 1800 mm^3, animals were sacrificed. […] B, Survival curve combining the data from the study shown in FIG. 12A, with a second identical study involving a total of 10 animals with two xenografts each. Disease-free survival was defined as no recurrence of either xenografts. […] As in 12A, except that xenografts of SH-SY5Y cells were implanted in one flank only and animals were treated with one additional cycle of drugs, i.e., compound 102 on days 13-15, TMZ, on day 16, and compound 102 plus TMZ on the same schedules. […] E, Western blots of U87 cells in culture 24 hours after exposure to compound 102 at 2.5 uM, TMZ at 25 uM or DOX at 2 uM, and compound 102 plus TMZ or DOX. F, Western blots of U373 cells 24 hours after exposure to compound 102 at 2.5 uM, doxorubicin at 2 uM, and both drugs. G, Western blots of U373 cells 24 hours after exposure to TMZ at 25 uM, okadaic acid at 2 nM, and both drugs.
TCTP is an abundant, highly conserved, multifunctional protein that binds to and stabilizes microtubules before and after mitosis and also exerts potent anti-apoptotic activity (Bommer and Thiele, 2004; Yarm, 2002; Susini et al, 2008) (FIG. 11E).
[…] Akt-1 activation, however, may be anti- or proapoptotic depending on the context of cell signaling (Andrabi et al, 2007).
The effects of compound 102, TMZ, doxorubicin (DOX), a widely used anti-cancer drug that disrupts DNA replication, compound 102 plus TMZ, and compound 102 plus DOX on the amount of pAkt, p53 and MDM2 in U87MG, a cell line with wild-type p53, and in U373, a cell line with mutant p53 (Short et al, 2007) were assessed by Western blots.

SH-SY5Y xenografts = assay: SH-SY5Y neuroblastoma s.c. xenografts in SCID mice, compound 102 and TMZ; assay type: in vivo; details: as U87MG plus one additional cycle; followed 7 weeks
Protocol: 5×10^6 U87MG cells were inoculated s.c. into each flank of 20 SCID mice. When the xenografts were 0.5+/−0.1 cm (day 0), 5 animals each received i.p. vehicle alone days 1-12 (50% DMSO/H20); compound 102 alone at 1.5 mg/kg days 1-3, 5-7, & 9-11; TMZ alone at 80 mg/kg days 4, 8, 12; or both drugs at the same doses and schedules. If xenografts reached 1800 mm^3, animals were sacrificed. […] B, Survival curve combining the data from the study shown in FIG. 12A, with a second identical study involving a total of 10 animals with two xenografts each. Disease-free survival was defined as no recurrence of either xenografts. […] As in 12A, except that xenografts of SH-SY5Y cells were implanted in one flank only and animals were treated with one additional cycle of drugs, i.e., compound 102 on days 13-15, TMZ, on day 16, and compound 102 plus TMZ on the same schedules. […] E, Western blots of U87 cells in culture 24 hours after exposure to compound 102 at 2.5 uM, TMZ at 25 uM or DOX at 2 uM, and compound 102 plus TMZ or DOX. F, Western blots of U373 cells 24 hours after exposure to compound 102 at 2.5 uM, doxorubicin at 2 uM, and both drugs. G, Western blots of U373 cells 24 hours after exposure to TMZ at 25 uM, okadaic acid at 2 nM, and both drugs. […]

[1] = U87MG, 24 hours, compound 102 2.5 uM, TMZ 25 uM, DOX 2 uM

## CC(C)(C)OC(=O)N1CCN(C(=O)C2C(C(=O)O)[C@H]3CC[C@@H]2O3)CC1 (stereo partly shown) [Compound 102]
U87 cells
  IC50: ~4 µM
U373 cells; compound 102 5 uM, TMZ 25 uM, doxorubicin 2.0 uM
  G1 phase cells: no effect
U373 cells; same concentrations
  G2/M phase cells: no effect
  S phase cells: no effect
U87MG cells; 24 hour, compound 102 2.5 uM, TMZ 25 uM
  intracellular levels of p53 by immunofluorescence staining: reduction
U87MG cells; U87MG, 2.5 uM, 24 hour
  TCTP: marked decrease
  microtubule and mitotic morphology: disordered microtubules and abnormal mitotic figures
  pPlk-1: increased
  phosphorylated MDM2: increased
U87MG cells; [1]
  MDM2: increased
  p53: decreased; also recorded: eliminated
  pAkt-1: increased
SH-SY5Y xenografts
  NB (SH-SY5Y) xenograft growth: completely suppressed growth for 2 weeks; also recorded: no growth until week 3
